In US9499614B2, “Methods for modulating protein glycosylation profiles of recombinant protein therapeutics using monosaccharides and oligosaccharides” (AbbVie, Inc., priority 2013, dated 2016):
“And” between values parts separate entries of the source, which are not always exact repeats. Equal values may be shown once. “Also recorded” adds a separate entry of the source.

Experiments:
Type in all cases: cell-based, Chinese Hamster
Cell Line 2 [1] = assay: N-glycan oligosaccharide profiling, Cell Line 2 (DVD 1) shake flasks (Example 2); details: 50 mM supplement vs control
Protocol: (§1) Two recombinant Chinese Hamster Ovary (CHO) cell lines expressing two different recombinant glycoproteins were evaluated in two different cultures vessels (shaker flasks and 3 L laboratory scale bioreactors). Cell Line 1 expressed Antibody 1, Cell Line 2 expressed Dual Variable Domain Immunoglobulin 1 (DVD 1) and Cell Line 3 expressed Antibody 2. Antibodies 1 and 2 are IgG1 proteins, and DVD 1 is an immunoglobulin with two variable domains as documented previously (Wu C. et al., (2007) Nat. Biotechnol 25(11):1290-1297). All cell lines were of CHO DUX-B11 origin based on a dhfr (dihydrofolate reductase) expression system. All cell lines were cultured in the same chemically defined basal media. Cell lines 1 and 2 were fed with the same chemically-defined feed media, but Cell Line 1 was fed media that was formulated at a 50% higher concentration. Each of the respective media were supplemented with either sucrose or tagatose to evaluate their potential impact on the resulting N-glycan oligosaccharide profile. All sugars were purchased from Sigma-Aldrich (St. Louis, Mo.). In preparation of the cultures, the cell lines were serially expanded through separate seed train inoculums to generate enough cells for inoculation.
Purified antibodies subjected to additional analytical characterization were purified using MabSelect™ Protein A (GE Healthcare, Piscataway, N.J.) using a low pH, step elution gradient, followed by buffer exchange using Corning Lifesciences (Tewksbury, Mass.) Spin Concentrator X UF columns according to the manufacturers' recommended procedures.
Approximately 200 μg of Protein A purified samples from Cell Lines 1 and 2 were treated with N-glycanase at 37° C. overnight to remove the N-glycans from the protein. The protein was precipitated and the supernatant was taken for subsequent chemical derivatization of the reducing end of the released glycans with 2-aminobenzamide (2-AB) dye. Following the derivatization step, the excess label was removed using clean up cartridges and the samples were analyzed using normal phase HPLC with fluorescent detection. Mobile phase A was 100% acetonitrile and mobile phase B was 50 mM ammonium formate pH 4.4. The glycans were eluted from a polyamide column (Prozyme, Hayward, Calif.) using a shallow gradient. The labeled glycans were detected using a fluorescence detector with an excitation wavelength of 330 nm and an emission wavelength of 420 nm.
(§2) Experimental results are expressed as mean±SD for those results generated from at least three independent cultures. Experimental results are expressed as the measured value for those results generated from less than three independent cultures. Results were evaluated for statistical significance through 2-sided t-tests, with a requirement of p<0.05 relative to the unsupplemented control conditions.
(§3) Cell Line 2 was cultured in shake flasks in fed batch mode after an abbreviated seed train. Sucrose and tagatose were supplemented into chemically-defined basal and feed media at concentrations of 1, 30, and 50 mM, and process performance results were compared to unsupplemented control conditions. The viable cell density (VCD), viability, and harvest titer results are shown in FIGS. 15A-15C for the sucrose supplemented cultures and FIGS. 16A-16C for the tagatose supplemented cultures.

Cell Line 2 [2] = assay: Shake flask fed batch culture of Cell Line 2 (DVD 1), cell culture performance (Example 2); details: for viable cell density over time: 1, 30 and 50 mM vs control
Protocol: as §1
Viable cell density (VCD) and cell viability values were measured through trypan blue exclusion via Cedex automated cell counters (Roche Applied Science, Indianapolis, Ind.), glucose and lactate values were measured with a ABL-805 (Radiometer Medical, Denmark) blood gas analyzer. Offline pH, dissolved oxygen (DO), and pCO2 measurements were performed with an ABL-805 (Radiometer Medical, Denmark) blood gas analyzer. Osmolality was measured on a Multi-Osmette 2430 osmometer (Precision Systems, Natick, Mass.).
(§4) Antibody titers were measured from crude cell culture harvests on a Poros A™ (Life Technologies, Carlsbad, Calif.) affinity column using an Agilent (Santa Clara, Calif.) 1200 Series HPLC, or equivalent, operating with a low pH, step elution gradient with detection at 280 nm. Absolute concentrations were assigned with respect to reference standard calibration curves.
as §2, §3

Cell Line 1 [3] = assay: 3 L laboratory-scale bioreactor culture of Cell Line 1, cell culture performance; details: for Osmolality / cell viability / lactate / pCO2 / viable cell density: 50 mM supplement vs control; for final harvest titer ratio: relative to unsupplemented control
Protocol: (§5) Two recombinant Chinese Hamster Ovary (CHO) cell lines expressing two different humanized monoclonal antibodies (Antibody 1, Antibody 2) were evaluated in two different culture vessels (shaker flasks and laboratory scale bioreactors). Both cell lines were of CHO DUX-B11 origin based on a dhfr (dihydrofolate reductase) expression system. Both cell lines were cultured in the same chemically defined basal media (CDBM), with Cell Line 1 also utilizing a chemically-defined feed media (CDFM). Each of the respective media were supplemented with selected monosaccharides and oligosaccharides to evaluate their potential impact on the resulting N-glycan oligosaccharide profile. In preparing the cultures, the cell lines were serially expanded through separate seed train inoculums to generate enough cells for inoculation.
(§6) Viable cell density (VCD) and cell viability values were measured through trypan blue exclusion via Cedex automated cell counters (Roche Applied Science, Indianapolis, Ind.), glucose and lactate values were measured with a ABL-805 (Radiometer Medical, Denmark) blood gas analyzer. Offline pH, dissolved oxygen (DO), and pCO2 measurements were performed with a ABL-805 (Radiometer Medical, Denmark) blood gas analyzer. Osmolality was measured on a Multi-Osmette 2430 osmometer (Precision Systems, Natick, Mass.).
as §4
3 L scale-down model bioreactors were utilized to verify the impact of select sugars on the resulting protein glycosylation profiles. The concentration of the sucrose and tagatose was chosen to minimize any potential adverse impact on cell growth and productivity, but still facilitate a measurable modulation of the glycosylation profile. Cell culture process performance indicators were monitored and measured throughout the respective cultures. Viable cell density, cell viability, lactate, pCO2, osmolality, harvest titer, and harvest N-glycan oligosaccharide data were measured and reported.
as §1
Viable cell density (VCD) and cell viability values were measured through trypan blue exclusion via Cedex automated cell counters (Roche Applied Science, Indianapolis, Ind.), glucose and lactate values were measured with a ABL-805 (Radiometer Medical, Denmark) blood gas analyzer. Offline pH, dissolved oxygen (DO), and pCO2 measurements were performed with an ABL-805 (Radiometer Medical, Denmark) blood gas analyzer. […]

Cell Line 1 [4] = assay: Shake flask fedbatch culture of Cell Line 1, cell culture performance (Example 1)
Protocol: as §5, §6, §4
Cell Line 1 was cultured in shake flasks in fedbatch mode after an abbreviated seed train. Sucrose and tagatose were supplemented into chemically-defined basal and feed media at concentrations of 30, 50, and 70 mM, and compared to an unsupplemented control condition. The viable cell density (VCD), viability, and harvest titer results are shown in FIGS. 3A-3C and FIGS. 5A-5C for the sucrose, and tagatose conditions, respectively. Both sugars facilitated a slight decrease in VCD, with the higher concentrations also supporting the lowest peak VCD. […] As such, the upper threshold of sucrose or tagatose concentration should not be exceeded.

Structure (SMILES): OC[C@H]1O[C@@](CO)(O[C@H]2O[C@H](CO)[C@@H](O)[C@H](O)[C@H]2O)[C@@H](O)[C@@H]1O [sucrose]
- cumulative increase in overall mannosylated N-glycans (Cell Line 2 [1]): 8%
- decrease in NA1F species (Cell Line 2 [1]): 1%
- decrease in NGA2F species (Cell Line 2 [1]): 20%
- increase in Man 5 species (Cell Line 2 [1]): 7% and 3%
- increase in Man 6 species (Cell Line 2 [1]): 1%
- increase in NGA2F-GlcNAc species (Cell Line 2 [1]): 8%
- overall decrease in the fucosylation level (Cell Line 2 [1]): 13%
- harvest titer reduction (Cell Line 2 [2]; 50 mM vs control): 48%
- reduction in peak VCD (Cell Line 2 [2]; 50 mM vs control): at most 2×10^6 cells/mL
- viable cell density over time (Cell Line 2 [2]): remained approximately the same
- Osmolality (Cell Line 1 [3]): only slightly higher
- cell viability (Cell Line 1 [3]): no impact
- lactate (Cell Line 1 [3]): only a nominal increase
- pCO2 (Cell Line 1 [3]): no significant difference
- viable cell density (Cell Line 1 [3]): no impact
- final harvest titer ratio (Cell Line 1 [3]; 50 mM supplement): 0.78
- Harvest titer (adverse impact) (Cell Line 1 [4]; 30 mM supplement vs control): did not adversely impact titer
- Harvest titer (adverse impact) (Cell Line 1 [4]; 50 mM supplement vs control): did not adversely impact titer
- Harvest titer (adverse impact) (Cell Line 1 [4]; 70 mM supplement vs control): reduce the harvest titer significantly
- cell viability (Cell Line 1 [4]; 70 mM supplement vs control): decrease in cell viability that was larger, and earlier in the culture

Structure (SMILES): O=C(CO)[C@@H](O)[C@@H](O)[C@H](O)CO [tagatose]
- cumulative increase in overall mannosylated N-glycans (Cell Line 2 [1]): 4%
- decrease in NA1F species (Cell Line 2 [1]): 1%
- decrease in NGA2F species (Cell Line 2 [1]): 9%
- increase in NGA2F-GlcNAc species (Cell Line 2 [1]): 5%
- overall decrease in the fucosylation level (Cell Line 2 [1]): 5%
- relative harvest titer (Cell Line 2 [2]; 1 mM vs control): did not adversely impact relative harvest titer
- viability after Day 8 (Cell Line 2 [2]; 30 mM and 50 mM vs control): remained higher than the control
- harvest titer decrease (Cell Line 2 [2]; 30 mM vs control): 15%
- harvest titer reduction (Cell Line 2 [2]; 50 mM vs control): 38%
- viable cell density over time (Cell Line 2 [2]): slightly higher compared to the control
- peak VCD (Cell Line 1 [3]; 50 mM supplement): 8.5×10^6 cells/mL
- Osmolality (Cell Line 1 [3]): higher; also recorded: only slightly higher
- cell viability (Cell Line 1 [3]): remained high throughout the culture
- lactate (Cell Line 1 [3]): only a nominal increase
- pCO2 (Cell Line 1 [3]): no significant difference
- viable cell density (Cell Line 1 [3]): much more pronounced effect
- final harvest titer ratio (Cell Line 1 [3]; 50 mM supplement): 0.90
- Harvest titer (adverse impact) (Cell Line 1 [4]; 30 mM supplement vs control): did not adversely impact harvest titer
- Harvest titer (adverse impact) (Cell Line 1 [4]; 50 mM supplement vs control): did
- Harvest titer (adverse impact) (Cell Line 1 [4]; 70 mM supplement vs control): did
